Laboratory results as given in US6482799B1, “Self-preserving multipurpose ophthalmic solutions incorporating a polypeptide antimicrobial” (The Regents of the University of California, priority 1999, dated 2002).

Tests used:
Escherichia coli ML35 = experiment: Dose response and kinetics of antimicrobial activity in 10 mM sodium phosphate buffer; assay type: cell-based
Protocol: (§1) The time course and dose-dependence of the antimicrobial activity of an antimicrobial peptide can be determined by incubating a microorganism with the antimicrobial peptide and determining the viability after various times of incubation or after treatment with various concentrations of the antimicrobial peptide.
(§2) Exemplary assays using indolicidin and indolicidin analogs were performed in 10 mM sodium phosphate buffer, pH 7.4, at 37° C., as described by Selsted et al. (1985) Infect. Immun. 45:150-154, which is incorporated herein by reference.
The dose response of a gram negative bacterial strain, Escherichia coli ML35, and a gram positive bacterial strain, Staphylococcus aureus 502A, to indolicidin was determined by incubating 2×10^6 colony forming units (CFU) of log phase bacteria with 0-25 μg/mL of indolicidin for two hours. Following incubation, the cultures were serially diluted and plated on nutrient agar. Viability of both gram negative and gram positive bacteria was reduced by at least four orders of magnitude in incubations containing 10 μg/mL of indolicidin. E. coli was more susceptible than S. aureus, as >95% of the input cells were killed after 2 hr incubation with 2.5 μg/mL indolicidin. […]
The kinetics of indolicidin antimicrobial activity was evaluated by incubating 2×10^6 E. coli with […] of indolicidin for 1 to 40 min. […]

[1] = Toxicity study, topical ocular administration
Protocol: (§3) The objective of this study was to determine if the treatment regimen proposed for the efficacy study of the defensin formulations caused target organ toxicity. This study is not intended to support application for research or marketing permits for products regulated by governmental agencies. The purpose of this study is to provide range-finding data is therefore, not within the scope of Good Laboratory Practice Guidelines.
Rabbits were treated four times on Day 1 at ˜1 hour intervals, and twice daily at ˜12 hour intervals administered on Days 2 through 4.
(§4) Dosing volumes were 0.1 mL/mouse (intravaginal), 0.1 mL/mouse (intraperitoneal), and 20 μL/rabbit. The study lasted 5 days, with day 1 the first day of dose administration.
(§5) The dose formulations were supplied in pyrogen-free saline.

[2] = Toxicity study, intravaginal administration
Protocol: as §3
Mice were treated by intravaginal administration twice daily at ˜12 hour intervals administered on Days 1 through 4. Mice were treated intraperitoneally three times on Day 1 at ˜4 hour intervals, and twice daily at ˜12 hour intervals administered on days 2 through 4.
as §4, §5

S. aureus (ATCC 6538) = experiment: Protocol 1 kill curve / MIC, 1 hour at 37° C.; assay type: cell-based, Staphylococcus aureus; settings: 10 mM sodium phosphate buffer
Protocol: (§6) This protocol is used to develop dose-response (kill) curves to calculate the minimal inhibitory concentration of an indolicidin (e.g., L-indolicidin (L-IND)) when formulated in a commercially available phosphate buffered saline (PBS) solution. In addition, for comparative purposes, kill curves are established for the following three commonly available commercial lens-care products containing different preservatives:
(§7) The stock solutions are diluted in a 2-fold fashion by transferring 1 ml of each stock solution to 1 ml of appropriate diluent in sterile glass tubes (100×13 mm). Twelve additional 2-fold dilutions are made by transferring 1 ml aliquots of each dilution to 1 ml diluent. The diluent for all commercial lens-care products is PBS. […]
(§8) Viable counts of the bacteria are performed by 10-fold serial dilutions in sterile PBS and by plating 0.1 ml aliquots on nutrient agar plates. […] The plates are incubated overnight at 37° C. and colonies are counted and recorded. […]
(§9) Survival is expressed as number of surviving bacteria (CFU/ml) for each dilution of the test article and control solutions. The lowest dose of the test article that results in complete kill of the test organism, compared to the non-exposed control, is determined to be the MIC value. […]

[3] = tested on: P. aeruginosa (ATCC 27853); experiment: Protocol 3 time-dependent antimicrobial activity at one dose level; assay type: cell-based, Pseudomonas aeruginosa
[4] = tested on: Escherichia coli (ATCC 8739); experiment: Protocol 1 kill curve / MIC, 1 hour at 37° C.; assay type: cell-based; settings: 6.25 μg/ml, 10 mM sodium phosphate buffer
Protocol: as §6, §7, §8, §9

[5] = tested on: Staphylococcus aureus 502A; experiment: Dose response of antimicrobial activity in 10 mM sodium phosphate buffer; assay type: cell-based; settings: 10 μg/mL indolicidin, 2 hours, 10 mM sodium phosphate buffer pH 7.4, 37° C., 2×10^6 CFU
Protocol: as §1, §2
The dose response of a gram negative bacterial strain, Escherichia coli ML35, and a gram positive bacterial strain, Staphylococcus aureus 502A, to indolicidin was determined by incubating 2×10^6 colony forming units (CFU) of log phase bacteria with 0-25 μg/mL of indolicidin for two hours. Following incubation, the cultures were serially diluted and plated on nutrient agar. Viability of both gram negative and gram positive bacteria was reduced by at least four orders of magnitude in incubations containing 10 μg/mL of indolicidin. E. coli was more susceptible than S. aureus, as >95% of the input cells were killed after 2 hr incubation with 2.5 μg/mL indolicidin. The indolicidin diluent, 0.01% acetic acid, had no effect on either bacterial strain.

[6] = 10, 100 or 1000 μg/mL, BPN-A-amide 30, 300 or 3000 μg/mL

Structure (SMILES): CC[C@H](C)[C@H](N)C(=O)N[C@@H](CC(C)C)C(=O)N1CCC[C@H]1C(=O)N[C@@H](Cc1c[nH]c2ccccc12)C(=O)N[C@@H](CCCCN)C(=O)N[C@@H](Cc1c[nH]c2ccccc12)C(=O)N1CCC[C@H]1C(=O)N[C@@H](Cc1c[nH]c2ccccc12)C(=O)N[C@@H](Cc1c[nH]c2ccccc12)C(=O)N1CCC[C@H]1C(=O)N[C@@H](Cc1c[nH]c2ccccc12)C(=O)N[C@@H](CCCNC(=N)N)C(=O)N[C@@H](CCCNC(=N)N)C(N)=O [L-indolicidin, H2N-ILPWKWPWWPWRR-CONH2]
- Viability reduction (Escherichia coli ML35; 10 μg/mL indolicidin, 2 hours, 10 mM sodium phosphate buffer pH 7.4, 37° C., 2×10^6 CFU): at least four
- culture viability (Escherichia coli ML35; 25 μ/mL indolicidin, after 20 min): essentially was sterilized
- deaths or clinical signs of toxicity [1, 6]: No deaths or biologically significant clinical signs of toxicity
- toxic changes in rabbit eyes (histology) ([1]; 20 μL/rabbit at 10, 100 or 1000 μg/mL, BPN-A-amide at 30, 300 or 3000 μ/mL): No toxic changes
- Tissues from the reproductive tract (histology) ([2]; 0.1 mL/mouse at 10, 100 or 1000 μg/mL, BPN-A-amide at 30, 300 or 300 μ/mL): within normal limits
- deaths or clinical signs of toxicity [2, 6]: No deaths or biologically significant clinical signs of toxicity
- log kill (S. aureus (ATCC 6538); 6.25 μg/ml): ~3 log
- survival (S. aureus (ATCC 6538); 100, 50, 25 and 12.5 μg/ml, 4.1×10^5 CFU/ml): no detectable survival
- log cell reduction ([3]; 50 μg/ml, 10 mM sodium phosphate buffer, as early as after 1 minute exposure, initial 2.0×10^6 CFU/ml): ~6 log
- survival ([3]; 50 μg/ml, 10 mM sodium phosphate buffer, exposure time 0 hr): 2.4 × 10^6 CFU/ml
- survival ([3]; 50 μg/ml, 10 mM sodium phosphate buffer, exposure time 1 hr): 1.6 × 10^6 CFU/ml
- survival ([3]; 50 μg/ml, 10 mM sodium phosphate buffer, exposure time 2 hr): 1.1 × 10^5 CFU/ml
- survival ([3]; 50 μg/ml, 10 mM sodium phosphate buffer, exposure time 4 hr): 0 CFU/ml
- survival ([3]; 50 μg/ml, 10 mM sodium phosphate buffer, exposure time 6 hr): 0 CFU/ml
- survival ([3]; 50 μg/ml, 10 mM sodium phosphate buffer, exposure time 12 hr): 0 CFU/ml
- survival ([3]; 50 μg/ml, 10 mM sodium phosphate buffer, up to 15 minutes): 100%
- killing ([3]; 50 μg/ml, 100 mM sodium phosphate buffer, exposures of between 15 and 60 min): virtually complete killing
- survival ([3]; 50 μ/ml, 10 mM sodium phosphate buffer, after 4 hours exposure): no detectable survival
- survival [4]: 15%
- Viability reduction [5]: at least four
